Experiments:
[1] = molecular target: T1, human topoisomerase II (Homo sapiens, UniProt P11388); assay: Decatenation assay (catenated to decatenated KDNA); type: biochemical; conditions: drug concentration that inhibits 50% of conversion of catenated to decatenated KDNA; read-out: topoisomerase II inhibition IC50
T1 construct: purchased TopoGEN, Inc
Procedure: Kinetoplast DNA (KDNA), human topoisomerase II (170 KDa form), and DNA Unwinding Kit including supercoiled pHOT1 DNA, relaxed DNA marker, buffers, and human topoisomerase I were purchased from TopoGEN, Inc. Agarose was purchased from Fisher. Quinobenzoxazine A-62176 (S-enantiomer) was provided by Abbott Laboratories or prepared by published procedure (Chu and Maleczka, Jr., 1987).
0.25 μg of KDNA was incubated with various concentrations of the quinobenzoxazines in a 20-μl reaction mixture containing 50 mM Tris-HCl (pH 8), 120 mM KCl, 10 mM MgCl2, and 0.5 mM each of ATP, dithiothreitol, and […] BSA for 10 min. Two units of human topoisomerase II (170 KDa form) were added to the mixture, which was then incubated at 37° C. for 30 min. The reaction was terminated with 0.1 volume of stop buffer (5% sarkosyl, 0.025% bromophenol blue, and 50% glycerol). The decatenation products were analyzed on 1% agarose gels run with 0.5 μg/ml ethidium bromide. The gels were scanned by FluoroImager and analyzed by ImageQuaNT software (Molecular Dynamics).

[2] = molecular target: T2, Drosophila topo II (Drosophila melanogaster, UniProt P15348); assay: Topo II cleavage reaction; type: biochemical; conditions: up to 10 μM
T2 construct: purchased Amersham
T2 sequence (P15348 1-1447): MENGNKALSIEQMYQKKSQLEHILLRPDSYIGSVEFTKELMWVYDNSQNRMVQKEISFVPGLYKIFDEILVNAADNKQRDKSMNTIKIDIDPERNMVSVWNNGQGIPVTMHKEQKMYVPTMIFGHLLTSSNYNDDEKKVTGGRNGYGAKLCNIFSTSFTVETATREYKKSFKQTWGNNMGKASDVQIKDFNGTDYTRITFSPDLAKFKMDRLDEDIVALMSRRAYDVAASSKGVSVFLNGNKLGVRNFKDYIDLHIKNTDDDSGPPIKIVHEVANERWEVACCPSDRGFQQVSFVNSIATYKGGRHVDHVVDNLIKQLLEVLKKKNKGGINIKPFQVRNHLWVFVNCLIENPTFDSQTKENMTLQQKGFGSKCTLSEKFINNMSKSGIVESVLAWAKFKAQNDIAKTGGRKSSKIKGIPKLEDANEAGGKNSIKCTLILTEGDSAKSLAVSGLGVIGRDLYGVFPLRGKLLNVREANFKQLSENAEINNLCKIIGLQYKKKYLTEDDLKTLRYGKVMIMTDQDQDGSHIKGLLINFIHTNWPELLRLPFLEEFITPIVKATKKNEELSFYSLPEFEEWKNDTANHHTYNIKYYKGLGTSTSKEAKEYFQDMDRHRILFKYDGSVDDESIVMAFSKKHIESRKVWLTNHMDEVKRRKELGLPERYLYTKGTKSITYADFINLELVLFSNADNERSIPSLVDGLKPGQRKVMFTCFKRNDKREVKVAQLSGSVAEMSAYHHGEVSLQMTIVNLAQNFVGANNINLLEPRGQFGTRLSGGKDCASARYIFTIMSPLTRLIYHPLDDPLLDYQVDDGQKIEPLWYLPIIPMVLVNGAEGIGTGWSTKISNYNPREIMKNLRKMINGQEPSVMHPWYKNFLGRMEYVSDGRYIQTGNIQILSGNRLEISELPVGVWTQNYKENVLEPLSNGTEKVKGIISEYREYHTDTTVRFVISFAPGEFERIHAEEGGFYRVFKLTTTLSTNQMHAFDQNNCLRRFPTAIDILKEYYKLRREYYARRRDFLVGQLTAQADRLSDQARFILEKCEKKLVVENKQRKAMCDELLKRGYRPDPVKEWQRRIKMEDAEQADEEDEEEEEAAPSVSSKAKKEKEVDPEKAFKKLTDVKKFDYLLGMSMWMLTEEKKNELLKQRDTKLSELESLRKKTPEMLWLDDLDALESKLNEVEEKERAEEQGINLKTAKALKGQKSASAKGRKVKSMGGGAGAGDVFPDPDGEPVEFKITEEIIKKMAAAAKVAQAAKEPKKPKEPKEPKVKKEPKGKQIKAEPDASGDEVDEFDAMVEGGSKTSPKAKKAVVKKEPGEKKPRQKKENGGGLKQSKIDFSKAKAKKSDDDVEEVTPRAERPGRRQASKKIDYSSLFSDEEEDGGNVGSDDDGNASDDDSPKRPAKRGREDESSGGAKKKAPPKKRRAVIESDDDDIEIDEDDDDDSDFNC
Procedure: FIGS. 5, A-B. Effect of A-62176 (I in FIG. 2) on DNA cleavage by topo II in the presence of ATP. (A) Autoradiogram of a 12% denaturing polyacrylamide gel showing topo II-mediated cleavage pattern in the presence of A-62176. The cleavage reaction was done in a reaction buffer containing 10 mM imidazole-HCl (pH 6.0), 10 mM MgCl2, 50 mM KCl, and 1 mM ATP, as described in the Materials and Methods section. Lanes 1-7 contain 20 units of Drosophila topo II. Lane 1 contains no drug. Lanes 2-7 contain 0.2, 0.5, 1, 2, 5 and 10 μM of A-62176, respectively. (B) Topo II cleavage products indicated by arrows in (A) were quantitated using a PhosphorImager and analyzed using ImageQuanNT software (Molecular Dynamics). The intensity of the topo II-mediated cleavage was determined from the volume of the bands [indicated by arrows in (A)] normalized by the total radioactivity in each lane.
5′^32P-labeled DNA was incubated with Drosophila topo II in 20 μl of a reaction buffer [10 mM imidazole-HCl (pH 6.0), 10 mM MgCl2, 50 mM KCl, and 1 mM ATP] at 30° C. for 10 min in the presence of various amounts of A-62176. Reactions were terminated by adding SDS to 1%, and topo II was removed by proteinase K digestion (100 μg/ml) at 42° C. for 1 hr followed by phenol/chloroform extraction and ethanol precipitation.

T1 sequence (P11388 whole entry): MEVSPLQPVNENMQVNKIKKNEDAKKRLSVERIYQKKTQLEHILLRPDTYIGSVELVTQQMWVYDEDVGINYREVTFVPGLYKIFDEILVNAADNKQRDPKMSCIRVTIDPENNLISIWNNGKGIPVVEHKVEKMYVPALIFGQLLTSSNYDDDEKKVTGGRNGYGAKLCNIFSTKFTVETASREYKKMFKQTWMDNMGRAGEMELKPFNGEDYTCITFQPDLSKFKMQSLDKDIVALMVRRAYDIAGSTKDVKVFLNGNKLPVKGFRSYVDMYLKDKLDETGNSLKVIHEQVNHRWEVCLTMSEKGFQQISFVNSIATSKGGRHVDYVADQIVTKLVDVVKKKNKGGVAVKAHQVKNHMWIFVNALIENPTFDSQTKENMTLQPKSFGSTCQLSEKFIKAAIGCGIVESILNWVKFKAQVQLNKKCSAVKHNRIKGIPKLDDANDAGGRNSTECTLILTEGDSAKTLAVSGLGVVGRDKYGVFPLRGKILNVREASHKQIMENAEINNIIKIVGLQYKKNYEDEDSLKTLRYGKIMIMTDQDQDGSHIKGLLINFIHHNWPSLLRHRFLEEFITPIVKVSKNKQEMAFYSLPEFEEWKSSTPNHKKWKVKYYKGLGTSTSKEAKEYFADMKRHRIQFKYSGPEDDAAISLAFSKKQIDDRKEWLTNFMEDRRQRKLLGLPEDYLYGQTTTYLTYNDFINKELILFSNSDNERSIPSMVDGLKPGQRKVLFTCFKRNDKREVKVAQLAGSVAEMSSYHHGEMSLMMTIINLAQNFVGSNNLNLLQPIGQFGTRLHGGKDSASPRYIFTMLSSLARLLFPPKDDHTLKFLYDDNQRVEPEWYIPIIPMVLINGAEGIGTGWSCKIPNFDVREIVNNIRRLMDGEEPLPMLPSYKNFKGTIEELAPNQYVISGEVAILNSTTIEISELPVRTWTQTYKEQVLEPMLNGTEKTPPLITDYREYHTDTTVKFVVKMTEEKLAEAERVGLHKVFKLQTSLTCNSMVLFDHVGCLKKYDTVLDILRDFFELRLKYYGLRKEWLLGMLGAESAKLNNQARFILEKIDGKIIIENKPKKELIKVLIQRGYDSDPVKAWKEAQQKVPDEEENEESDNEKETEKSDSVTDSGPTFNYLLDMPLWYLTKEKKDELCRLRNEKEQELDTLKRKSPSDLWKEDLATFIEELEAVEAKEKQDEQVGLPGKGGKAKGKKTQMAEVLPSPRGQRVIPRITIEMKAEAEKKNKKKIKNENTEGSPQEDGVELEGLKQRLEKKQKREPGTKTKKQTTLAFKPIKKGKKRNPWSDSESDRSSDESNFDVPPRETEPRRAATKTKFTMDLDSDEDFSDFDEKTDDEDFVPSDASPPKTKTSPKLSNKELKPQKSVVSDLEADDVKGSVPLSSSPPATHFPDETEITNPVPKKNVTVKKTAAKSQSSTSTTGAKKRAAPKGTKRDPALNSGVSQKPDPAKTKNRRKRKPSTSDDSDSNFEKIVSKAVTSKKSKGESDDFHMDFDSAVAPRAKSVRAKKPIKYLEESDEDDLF

`N[C@H]1CCN(c2c(F)cc3c(=O)c(C(=O)O)cn4c3c2Oc2ccccc2-4)C1` [Compound A-62176, 1-(3-aminopyrrolidin-1-yl)-2-fluoro-4-oxo-4H-quino[2,3,4-i,j][1,4]benzoxazine-5-carboxylic acid, reference compound] was tested, and the IC50 [1] was 510 nM and the “topo II-mediated cleavage” value [2] was “enhance”.

Reference: patent US6528517B1, “Synthesis of quinobenzoxazine analogues with topoisomerase II and quadruplex interactions for use as antineoplastic agents” (Board of Regents, The University of Texas System, priority 1998, dated 2003)
